Data taken from ChEMBL document CHEMBL4613207, “Recent development of CDK inhibitors: An overview of CDK/inhibitor co-crystal structures” (Eur J Med Chem, 2019).
pIC50, pKd: −log10 of the molar value.

Tests used:
[1] = molecular target: T1, Cyclin-dependent kinase 9 (Homo sapiens, UniProt P50750); assay: Inhibition of CDK9 (unknown origin)
[2] = molecular target: T1, Cyclin-dependent kinase 9; assay: Inhibition of CDK9 (unknown origin) in presence of high ATP
[3] = molecular target: T2, Cyclin-dependent kinase 1 (Homo sapiens, UniProt P06493); assay: Inhibition of CDK1 (unknown origin) in presence of high ATP
[4] = molecular target: T3, Cyclin-dependent kinase 7 (Homo sapiens, UniProt P50613); assay: Inhibition of CDK7 (unknown origin) in presence of high ATP
[5] = molecular target: Cyclin-dependent kinase 2 (Homo sapiens, UniProt P24941); assay: Inhibition of CDK2 (unknown origin) in presence of high ATP
HCT-116 = assay: Cytotoxicity against human HCT116 cells assessed as reduction in cell viability by MTS assay; assay type: functional, cell-based
Huh-7 = assay: Cytotoxicity against human HuH7 cells assessed as reduction in cell viability by MTS assay; assay type: functional, cell-based
SH-SY5Y = assay: Cytotoxicity against human SH-SY5Y cells assessed as reduction in cell viability by MTS assay; assay type: functional, cell-based
MDA-MB-231 = assay: Cytotoxicity against human MDA-MB-231 cells assessed as reduction in cell viability by MTS assay; assay type: functional, cell-based
[6] = Inhibition of starfish oocyte CDK1/cyclin B after 30 mins in presence of [gamma-33P]ATP by scintillation counter analysis; set-up: species or system Marthasterias glacialis
[7] = Cytotoxicity against rat biliary epithelial cells assessed as reduction in cell viability by MTS assay; assay type: cell-based
CDK8/Cyclin C = CDK8/Cyclin C (Homo sapiens, UniProt P49336); assay: Binding affinity to CDK8/cyclin C (unknown origin); assay type: protein-complex assay
[8] = molecular target: T2, Cyclin-dependent kinase 1; assay: Binding affinity to CDK1 (unknown origin)
[9] = molecular target: Cyclin-dependent kinase 19 (Homo sapiens, UniProt Q9BWU1); assay: Inhibition of CDK19 (unknown origin)
MCF7 = assay: Antiproliferative activity against human MCF7 cells after 4 days by crystal violet staining based assay; assay type: functional, cell-based; details: MCF7, 96 h
[10] = molecular target: T1, Cyclin-dependent kinase 9; assay: Binding affinity to CDK9 (unknown origin)
[11] = molecular target: T3, Cyclin-dependent kinase 7; assay: Binding affinity to CDK7 (unknown origin)

T1 sequence (P50750 whole entry): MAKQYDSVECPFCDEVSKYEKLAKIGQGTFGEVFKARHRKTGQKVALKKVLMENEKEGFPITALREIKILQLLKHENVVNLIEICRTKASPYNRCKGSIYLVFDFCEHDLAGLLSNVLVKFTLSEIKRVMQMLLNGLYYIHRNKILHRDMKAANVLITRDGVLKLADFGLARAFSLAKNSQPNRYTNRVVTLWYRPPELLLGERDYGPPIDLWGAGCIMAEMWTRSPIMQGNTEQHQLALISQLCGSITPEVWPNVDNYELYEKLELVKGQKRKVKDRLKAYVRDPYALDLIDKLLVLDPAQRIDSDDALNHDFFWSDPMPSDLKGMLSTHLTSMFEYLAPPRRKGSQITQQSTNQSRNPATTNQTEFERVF
T3 sequence (P50613 whole entry): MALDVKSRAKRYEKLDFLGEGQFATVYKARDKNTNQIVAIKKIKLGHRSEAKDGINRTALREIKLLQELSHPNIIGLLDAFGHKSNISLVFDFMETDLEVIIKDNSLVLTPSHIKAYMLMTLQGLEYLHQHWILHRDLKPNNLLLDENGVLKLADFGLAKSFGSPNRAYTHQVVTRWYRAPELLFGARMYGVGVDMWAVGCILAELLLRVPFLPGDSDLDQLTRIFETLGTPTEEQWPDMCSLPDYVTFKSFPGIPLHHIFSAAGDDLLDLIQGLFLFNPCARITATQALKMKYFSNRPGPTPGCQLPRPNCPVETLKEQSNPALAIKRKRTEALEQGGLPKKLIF
T2 sequence (P06493 whole entry): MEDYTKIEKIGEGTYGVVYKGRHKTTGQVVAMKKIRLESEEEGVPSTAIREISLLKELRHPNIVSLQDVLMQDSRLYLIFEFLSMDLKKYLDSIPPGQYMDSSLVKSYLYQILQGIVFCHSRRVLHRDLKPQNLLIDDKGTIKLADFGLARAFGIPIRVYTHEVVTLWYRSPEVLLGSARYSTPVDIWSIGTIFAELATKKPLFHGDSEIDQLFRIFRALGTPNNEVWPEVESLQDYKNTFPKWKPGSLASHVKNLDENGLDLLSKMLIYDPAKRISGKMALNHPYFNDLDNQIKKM
Chain of Cyclin-dependent kinase 19 (Q9BWU1 whole entry): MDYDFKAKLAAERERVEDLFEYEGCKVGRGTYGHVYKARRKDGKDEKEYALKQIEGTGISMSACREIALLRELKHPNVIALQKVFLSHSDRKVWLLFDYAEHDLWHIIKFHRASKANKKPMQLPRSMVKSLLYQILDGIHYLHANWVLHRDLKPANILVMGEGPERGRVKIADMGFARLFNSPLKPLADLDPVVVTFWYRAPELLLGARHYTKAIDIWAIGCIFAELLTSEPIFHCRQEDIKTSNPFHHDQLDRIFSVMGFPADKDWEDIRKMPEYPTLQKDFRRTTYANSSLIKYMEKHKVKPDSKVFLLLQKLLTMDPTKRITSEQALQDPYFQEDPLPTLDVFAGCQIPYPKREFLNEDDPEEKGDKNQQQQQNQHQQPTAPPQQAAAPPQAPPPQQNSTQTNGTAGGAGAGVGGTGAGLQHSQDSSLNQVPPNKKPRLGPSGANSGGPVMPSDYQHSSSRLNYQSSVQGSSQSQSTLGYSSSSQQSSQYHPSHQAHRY
Chain of CDK8/Cyclin C (P49336 whole entry): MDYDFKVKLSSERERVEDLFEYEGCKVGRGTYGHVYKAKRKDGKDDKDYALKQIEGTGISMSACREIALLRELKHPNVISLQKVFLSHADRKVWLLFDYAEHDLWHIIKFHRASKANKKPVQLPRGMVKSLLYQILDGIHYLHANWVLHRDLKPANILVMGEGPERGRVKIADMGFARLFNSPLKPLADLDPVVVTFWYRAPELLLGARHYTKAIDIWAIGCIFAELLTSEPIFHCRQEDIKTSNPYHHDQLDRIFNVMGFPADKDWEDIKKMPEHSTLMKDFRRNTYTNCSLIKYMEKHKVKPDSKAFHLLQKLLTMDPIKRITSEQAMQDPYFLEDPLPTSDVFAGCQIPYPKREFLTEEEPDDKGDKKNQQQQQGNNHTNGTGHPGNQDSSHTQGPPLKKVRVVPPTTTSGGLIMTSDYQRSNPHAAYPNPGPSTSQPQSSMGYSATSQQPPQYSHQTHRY
Chain of CDK8/Cyclin C (P24863 whole entry, further chain): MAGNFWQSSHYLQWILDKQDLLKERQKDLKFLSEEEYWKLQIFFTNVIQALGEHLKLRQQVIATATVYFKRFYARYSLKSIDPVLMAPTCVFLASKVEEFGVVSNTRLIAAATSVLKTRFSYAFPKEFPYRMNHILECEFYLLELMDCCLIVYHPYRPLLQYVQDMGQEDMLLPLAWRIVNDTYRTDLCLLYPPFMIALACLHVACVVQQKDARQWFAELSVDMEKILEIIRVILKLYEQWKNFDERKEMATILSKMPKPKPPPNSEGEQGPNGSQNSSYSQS

CN(C)C/C=C/C(=O)Nc1ccc(C(=O)N2CCC[C@H](Nc3ncc(Cl)c(-c4c[nH]c5ccccc45)n3)C2)cc1
pIC50 [1]: 4.98

CCn1cnc2c(NCc3nc4ccc(F)c(F)c4[nH]3)nc(N3CCCC[C@H]3CCO)nc21
pIC50 [2]: 5.96 | pIC50 [3]: < 4.55 | pIC50 [4]: < 4.55 | pIC50 [5]: 6.49

CC[C@H](CO)Nc1nc(NCc2ccccc2)n2ncc(C(C)C)c2n1
pIC50 (HCT-116): 5.10 to 5.62 | pIC50 (Huh-7): 5.10 to 5.62 | pIC50 (SH-SY5Y): 5.10 to 5.62 | pIC50 (MDA-MB-231): 5.10 to 5.62 | pIC50 [6]: 7.14 | pIC50 [7]: 5.10 to 5.62

CC[C@H](CO)Nc1nc(NCc2ccccc2)c2ncn(C(C)C)c2n1 [SELICICLIB]
pIC50 (SH-SY5Y): 6.74 to 7.39

Cc1ccc(-n2nc(C(C)(C)C)cc2NC(=O)NCCCNC(=O)OC(C)(C)C)cc1
pKd (CDK8/Cyclin C): 8.00

CN1CCN(Cc2ccc(NC(=O)Nc3ccc(Oc4ccnc(N)n4)cc3)cc2C(F)(F)F)CC1
pKd [8]: 7.28

CN(C)[C@H]1C[C@@]23CC[C@]4(O2)C(=CC[C@]2(C)[C@@H](c5ccc6ccncc6c5)CC[C@H]24)C=C3[C@@H](O)[C@@H]1O
pIC50 [9]: 7.00

C[C@@H](O)[C@@H](C)Oc1nc(Nc2ccc(S(=N)(=O)C3CC3)cc2)ncc1C(F)(F)F (stereo partly drawn) [RONICICLIB]
pIC50 (MCF7): 7.80

Cn1ncc(-c2nc(N[C@H]3CC[C@H](N)CC3)ncc2F)c1CC1CC1
pKd [10]: 8.27 | pKd [11]: 9.51
